{
  "source": "patent US20260219274A1",
  "about": "“POLYOL SWEETNERS AND CARDIOVASCULAR AND THROMBOTIC EVENT RISK” (THE CLEVELAND CLINIC FOUNDATION, priority 2023, published 2026)",
  "key": {"[1]": {"tested_on": "patients undergoing elective diagnostic coronary angiography (European cohort)", "test": "European validation cohort: LC/MS/MS serum erythritol vs 3-year MACE", "assay_type": "in vivo, human", "excerpt": "In a third clinical study (the European Cohort, n=833), serum erythritol levels were quantified by stable isotope dilution LC/MS/MS in samples from sequential patients undergoing elective diagnostic coronary angiography due to (suspected) chronic coronary syndromes enrolled in the observational LipidCardio study between 2016-2018 at the Charité University Hospital, Campus Benjamin Franklin (registered under German Clinical Trial Register (drks.de); identifier: DRKS00020915) with a follow-up for 3 years^49. As a quaternary referral center, Charité University Hospital is centrally located in Europe, and subjects enrolled in the LipidCardio study have large geographic catchment, with residences throughout Europe. eGFR was calculated via CKD-MDRD equation^48. For the European validation cohort, there was a total of 833 samples available with MACE outcome data. All samples were used for the erythritol LC/MS/MS measurement.\nStable-isotope-dilution LC/MS/MS was used for quantification of erythritol, threitol, and 1,5-AHG in human and mouse plasma. Ice cold methanol (800 μL) and internal standards (D6-erythitol and ^13C6-1,5-AHG) were added to the plasma samples (20 μL), followed by vortexing and centrifuging (21,000×g; 4° C. for 15 min). The clear supernatant (800 μL) was transferred into a clean, labeled glass tubes (Borosilicate glass 12×75 mm) and dried in a speed vacuum concentrator (Speed vac plus, SC210, Thermo Sevant). The dry residue was reconstituted in acetic anhydride (100 μL) and 4-Dimethylaminopyridine (DMAP) in pyridine (100 μL; 1 mg/mL), sealed with safety caps, vortexed and heated (45 min at 80° C.) followed with drying under nitrogen. Dried residues were dissolved in HCl in water (0.1 M; 0.5 mL) and extracted with ethyl acetate (2 mL). Ethyl acetate layer was transferred into a clean glass tubes (Borosilicate glass 12×75 mm) and dried under nitrogen. The dry residue was reconstituted in ammonium formate in a mixture of methanol:water (100 μL; 50:50 v/v with 10 mM ammonium formate), tubes were vortexed and liquid was transferred to glass vials with micro-insets and caped. LC/MS/MS analysis was performed on a chromatographic system consisting of two Shimadzu LC-30 AD pumps (Nexera X2), a CTO 20AC oven operating at 30° C., and a SIL-30 AC-MP autosampler in tandem with a triple quadruple mass spectrometer (8050 series, Shimadzu Scientific Instruments, Inc., Columbia, MD, USA). For chromatographic separation, a Kinetex C18 column (50 mm×2.1 mm; […]) (Cat #00B-4462-AN, Phenomenex, Torrance, CA) was used. […] Electrospray ionization in the positive mode was used with multiple reaction monitoring (MRM) for detection of endogenous and stable isotope labeled internal standards. The following transitions were used: m/z 308.0 [M+4xC2OH2+NH4]^+→231.0 for threitol and erythritol, m/z 314.0 [M+4xC2OH2+NH4]^+→237.0 for D6-erythritol; m/z 360.1 [M+4xC2OH2+NH4]^+→273.3 for 1,5AHG; […] [M+4xC2OH2+NH4]^+→279.3 for ^13C6-1,5-AHG; The following ion source parameters were applied: nebulizing gas flow, 3 l/min; heating gas flow, 10 L/min; interface temperature, 300° C.; desolvation line temperature, 250° C.; heat block temperature, 400° C.; and drying gas flow, 10 L/min. Limit of detection (LOD) and limit of quantification (LOQ) were as follow: threitol:0.048 and 0.160 μM; erythritol: 0.026 and 0.089 μM; 1,5-AHG: […]; respectively. Three quality control samples were run with each batch of samples and inter-batch variations expressed as coefficient of variation (CV) were less than 7% for all analytes monitored. Data were collected and analyzed by LabSolution 5.91 software (Shimadzu).\nContinuous variables were summarized as median (25th and 75th percentiles), and categorical variables are presented as %. For group comparisons of patient characteristics, Kruskal-Wallis test was performed for numerical data and Chi-Square test for categorical data. […]"}, "[2]": {"tested_on": "platelets of healthy volunteers", "test": "Erythritol or glucose ingestion: platelet aggregation and granule release", "assay_type": "in vivo, human", "description": "(§1) This single center trial was approved by the Cleveland Clinic Institutional Review Board (clinicaltrials.gov identifier NCT04731363). Following subject consent (nonsmokers without CVD, hypertension, or diabetes), blood was drawn after overnight fast and 30 min following consumption of water containing 30 g of […] glucose (n=10, 30.1±11 years of age, 40% male), or erythritol (n=10, 30.5±8 years of age, 50% male), a quantity commonly found in erythritol-sweetened foods and the daily intake of some subjects based on 2013-2014 National Health and Nutrition Examination Survey (NHANES) data and FDA filings.(4,5).\n(§2) Following erythritol consumption, postprandial circulating erythritol levels (assessed using stable-isotope-dilution liquid-chromatography tandem mass spectrometry (LC/MS/MS)3) were >1000-fold increased compared to baseline levels (median[inter quartile range], 6480[5930-7300]μM versus 3.75[3.35-3.87]μM, P<0.0001). In contrast, circulating erythritol levels remained similar before versus after glucose consumption (3.0[2.6-4.0]μM versus 2.9[2.7-3.8]μM, P=0.87; glucose levels before versus after 86.5(81.8-93.0) versus 127.0(122.3-132.3), P=0.002). […] In contrast, glucose consumption had no effect on platelet aggregation."}, "clinical": {"test": "clinical", "conditions": "human, in vivo", "description": "as §1, §2"}},
  "data": [
    {"smiles": "OC[C@@H](O)[C@@H](O)CO", "note": "[erythritol]", "values": [
      {"measurement": "HR with 95% CI", "setting": "[1]; 3-year MACE per μM of erythritol, adjusted Cox model", "value": "1.16 (1.05-1.30)"},
      {"measurement": "Adjusted HR, 3-year MACE", "setting": "[1]; erythritol Q2 vs Q1, female", "value": 1.82},
      {"measurement": "Unadjusted HR, 3-year MACE", "setting": "[1]; erythritol Q2 vs Q1, female", "value": 1.64},
      {"measurement": "Adjusted HR, 3-year MACE", "setting": "[1]; erythritol Q2 vs Q1, male", "value": 0.98},
      {"measurement": "Unadjusted HR, 3-year MACE", "setting": "[1]; erythritol Q2 vs Q1, male", "value": 1.22},
      {"measurement": "Adjusted HR, 3-year MACE", "setting": "[1]; erythritol Q3 vs Q1, female", "value": 1.66},
      {"measurement": "Unadjusted HR, 3-year MACE", "setting": "[1]; erythritol Q3 vs Q1, female", "value": 1.67},
      {"measurement": "Adjusted HR, 3-year MACE", "setting": "[1]; erythritol Q3 vs Q1, male", "value": 0.93},
      {"measurement": "Unadjusted HR, 3-year MACE", "setting": "[1]; erythritol Q3 vs Q1, male", "value": 2.09},
      {"measurement": "Adjusted HR, 3-year MACE", "setting": "[1]; erythritol Q4 vs Q1, female", "value": "2.27 (0.75-6.82)"},
      {"measurement": "Unadjusted HR, 3-year MACE", "setting": "[1]; erythritol Q4 vs Q1, female", "value": "3.77 (1.61-8.80)"},
      {"measurement": "Adjusted HR, 3-year MACE", "setting": "[1]; erythritol Q4 vs Q1, male", "value": 2.37},
      {"measurement": "Unadjusted HR, 3-year MACE", "setting": "[1]; erythritol Q4 vs Q1, male", "value": 4.92},
      {"measurement": "increase in the adjusted HR for MACE", "setting": "[1]; per 1 μM increase in erythritol levels", "value": 16, "unit": "%"},
      {"measurement": "Q4 vs. Q1 HR (95% CI), 3-year MACE", "setting": "[1]; subgroup Age <70", "value": "3.08 (1.22-7.78)"},
      {"measurement": "Q4 vs. Q1 HR (95% CI), 3-year MACE", "setting": "[1]; subgroup Age ≥70", "value": "3.49 (2.12-5.73)"},
      {"measurement": "Q4 vs. Q1 HR (95% CI), 3-year MACE", "setting": "[1]; subgroup CAD", "value": "4.22 (2.58-6.89)"},
      {"measurement": "Q4 vs. Q1 HR (95% CI), 3-year MACE", "setting": "[1]; subgroup Diabetes", "value": "5.16 (2.4-11.1)"},
      {"measurement": "Q4 vs. Q1 HR (95% CI), 3-year MACE", "setting": "[1]; subgroup Female", "value": "3.77 (1.61-8.80)"},
      {"measurement": "Q4 vs. Q1 HR (95% CI), 3-year MACE", "setting": "[1]; subgroup GFR <60 ml/min/1.73 m^3", "value": "5.25 (2.82-9.76)"},
      {"measurement": "Q4 vs. Q1 HR (95% CI), 3-year MACE", "setting": "[1]; subgroup GFR ≥60 ml/min/1.73 m^3", "value": "2.38 (1.32-4.31)"},
      {"measurement": "Q4 vs. Q1 HR (95% CI), 3-year MACE", "setting": "[1]; subgroup HDL-c <40 mg/dL", "value": "4.15 (1.91-8.99)"},
      {"measurement": "Q4 vs. Q1 HR (95% CI), 3-year MACE", "setting": "[1]; subgroup HDL-c ≥40 mg/dL", "value": "4.28 (2.4-7.62)"},
      {"measurement": "Q4 vs. Q1 HR (95% CI), 3-year MACE", "setting": "[1]; subgroup HbA1C <5.7%", "value": "2.13 (1.06-4.25)"},
      {"measurement": "Q4 vs. Q1 HR (95% CI), 3-year MACE", "setting": "[1]; subgroup HbA1C ≥5.7%", "value": "5.39 (2.96-9.81)"},
      {"measurement": "Q4 vs. Q1 HR (95% CI), 3-year MACE", "setting": "[1]; subgroup Hypertension", "value": "6.08 (1.31-28.1)"},
      {"measurement": "Q4 vs. Q1 HR (95% CI), 3-year MACE", "setting": "[1]; subgroup LDL-c <100 mg/dL", "value": "3.92 (2.25-6.83)"},
      {"measurement": "Q4 vs. Q1 HR (95% CI), 3-year MACE", "setting": "[1]; subgroup LDL-c ≥100 mg/dL", "value": "4.27 (1.94-9.37)"},
      {"measurement": "Q4 vs. Q1 HR (95% CI), 3-year MACE", "setting": "[1]; subgroup Male", "value": "4.92 (2.89-8.35)"},
      {"measurement": "Q4 vs. Q1 HR (95% CI), 3-year MACE", "setting": "[1]; subgroup No CAD", "value": "5.97 (1.75-20.4)"},
      {"measurement": "Q4 vs. Q1 HR (95% CI), 3-year MACE", "setting": "[1]; subgroup No Diabetes", "value": "2.96 (1.72-5.10)"},
      {"measurement": "Q4 vs. Q1 HR (95% CI), 3-year MACE", "setting": "[1]; subgroup No Hypertension", "value": "4.97 (3.05-8.09)"},
      {"measurement": "Q4 vs. Q1 HR (95% CI), 3-year MACE", "setting": "[1]; subgroup No Prior MI", "value": "3.48 (1.77-6.87)"},
      {"measurement": "Q4 vs. Q1 HR (95% CI), 3-year MACE", "setting": "[1]; subgroup Prior MI", "value": "4.69 (2.54-8.66)"},
      {"measurement": "Q4 vs. Q1 HR (95% CI), 3-year MACE", "setting": "[1]; subgroup Triglycerides <150", "value": "3.71 (1.93-7.14)"},
      {"measurement": "Q4 vs. Q1 HR (95% CI), 3-year MACE", "setting": "[1]; subgroup Triglycerides ≥150", "value": "3.85 (1.50-9.87)"},
      {"measurement": "platelet aggregation responses to ADP and TRAP6 after ingestion", "setting": "[2]; 30 min after 30 g vs baseline", "value": "striking increase"},
      {"measurement": "stimulus-dependent release of alpha granule marker CXCL4", "setting": "[2]; TRAP6 (7.5 μM), ADP (2.0 μM), after ingestion", "value": "markedly enhanced"},
      {"measurement": "stimulus-dependent release of dense granule marker serotonin", "setting": "[2]; TRAP6 and ADP, after ingestion", "value": "markedly enhanced"},
      {"measurement": "concentration at 30 min", "setting": "clinical; both sexes", "value": 6480, "unit": "µM"},
      {"measurement": "baseline circulating erythritol levels, median[inter quartile range]", "setting": "clinical; both", "value": "3.75[3.35-3.87] μM"},
      {"measurement": "circulating erythritol levels", "setting": "clinical; both", "value": "3.0[2.6-4.0] μM"},
      {"measurement": "circulating erythritol levels", "setting": "clinical; both, 30 min", "value": "2.9[2.7-3.8] μM"},
      {"measurement": "increase of postprandial circulating erythritol vs baseline", "setting": "clinical; both, 30 min", "value": "> 1000", "unit": "fold"}
    ]}
  ]
}
